Measurements reported in ChEMBL document CHEMBL1201862, “PubChem BioAssay data set” (2004).
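Exposure lasted 48 hours, with cells grown in 96-well plates and compounds tested at five concentrations. GI50 = concentration required for 50% inhibition of growth.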 Active and inactive are the calls of the source. Cut-off read from the data, not from the text of the source: active = GI50 up to about 1.1 µM and inactive = higher.

Experiments:
Assay in all cases: NCI-60 cell line screen, 48 h
[1] = tested on: U-251
[2] = tested on: NCI-H226
[3] = tested on: NCI/ADR-RES
[4] = tested on: UACC-257
[5] = tested on: IGROV-1
[6] = tested on: UO-31
[7] = tested on: Malme-3M
[8] = tested on: HCT-15
[9] = tested on: LOX IMVI
[10] = tested on: SN12C
[11] = tested on: 786-0
[12] = tested on: OVCAR-3
[13] = tested on: ACHN
[14] = tested on: SR
[15] = tested on: HT-29
[16] = tested on: SW-620
[17] = tested on: KM12
[18] = tested on: MDA-MB-231
[19] = tested on: K562
[20] = tested on: MOLT-4
[21] = tested on: COLO 205
[22] = tested on: OVCAR-8
[23] = tested on: T47D
[24] = tested on: SF-268
[25] = tested on: HOP-92
[26] = tested on: CAKI-1
[27] = tested on: SF-295
[28] = tested on: SNB-75
[29] = tested on: EKVX
[30] = tested on: RPMI-8226
[31] = tested on: SK-MEL-5
[32] = tested on: PC-3
[33] = tested on: HOP-62
[34] = tested on: UACC-62
[35] = tested on: M14
[36] = tested on: SK-OV-3
[37] = tested on: A549
[38] = tested on: OVCAR-5
[39] = tested on: Hs-578T
[40] = tested on: MCF7
[41] = tested on: MDA-MB-435
[42] = tested on: OVCAR-4
[43] = tested on: MDA-N
[44] = tested on: RXF 393
[45] = tested on: TK-10
[46] = tested on: NCI-H23
[47] = tested on: SNB-19
[48] = tested on: HL-60
[49] = tested on: CCRF-CEM
[50] = tested on: SK-MEL-2
[51] = tested on: SF-539
[52] = tested on: SK-MEL-28
[53] = tested on: NCI-H522
[54] = tested on: HCC 2998
[55] = tested on: A498
[56] = tested on: DU-145
[57] = tested on: NCI-H460
[58] = tested on: HCT-116

Question: With `COC(=O)C1=C(C)NC(C)=C(C(=O)OCCCN2CCC(c3ccccc3)(c3ccccc3)CC2)[C@H]1c1cccc([N+](=O)[O-])c1` [NIGULDIPINE] as the compound, how does the GI50 [1] read?
Answer: 1.8 µM (inactive)

Question: And the GI50 [2]?
Answer: 3.25 µM (inactive)

Question: And the GI50 [3]?
Answer: 1.73 µM (inactive)

Question: And the GI50 [4]?
Answer: 1.66 µM (inactive)

Question: What about the GI50 [5] of the same compound?
Answer: 1.8 µM (inactive)

Question: And the GI50 [6]?
Answer: 2 µM (inactive)

Question: What about the GI50 [7] of the same compound?
Answer: 2.07 µM (inactive)

Question: And the GI50 [8]?
Answer: 1.94 µM

Question: What about the GI50 [9] of the same compound?
Answer: 1.62 µM (inactive)

Question: What about the GI50 [10] of the same compound?
Answer: 1.58 µM (inactive)

Question: And the GI50 [11]?
Answer: 1.61 µM (inactive)

Question: And the GI50 [12]?
Answer: 1.46 µM (inactive)

Question: And the GI50 [13]?
Answer: 1.66 µM (inactive)

Question: And the GI50 [14]?
Answer: 2.26 µM (inactive)

Question: What about the GI50 [15] of the same compound?
Answer: 1.3 µM (inactive)

Question: And the GI50 [16]?
Answer: 1.92 µM (inactive)

Question: And the GI50 [17]?
Answer: 1.77 µM (inactive)

Question: What about the GI50 [18] of the same compound?
Answer: 1.3 µM (inactive)

Question: What about the GI50 [19] of the same compound?
Answer: 0.946 µM (active)

Question: And the GI50 [20]?
Answer: 1.95 µM (inactive)

Question: And the GI50 [21]?
Answer: 1.57 µM (inactive)

Question: And the GI50 [22]?
Answer: 1.95 µM (inactive)

Question: What about the GI50 [23] of the same compound?
Answer: 11.5 µM (inactive)

Question: What about the GI50 [24] of the same compound?
Answer: 1.79 µM (inactive)

Question: And the GI50 [25]?
Answer: 1.39 µM (inactive)

Question: What about the GI50 [26] of the same compound?
Answer: 3.98 µM (inactive)

Question: What about the GI50 [27] of the same compound?
Answer: 1.73 µM (inactive)

Question: What about the GI50 [28] of the same compound?
Answer: 1.37 µM (inactive)

Question: What about the GI50 [29] of the same compound?
Answer: 2 µM (inactive)

Question: And the GI50 [30]?
Answer: 1.61 µM (inactive)

Question: What about the GI50 [31] of the same compound?
Answer: 1.75 µM (inactive)

Question: And the GI50 [32]?
Answer: 1.52 µM (inactive)

Question: What about the GI50 [33] of the same compound?
Answer: 4.6 µM (inactive)

Question: What about the GI50 [34] of the same compound?
Answer: 1.61 µM (inactive)

Question: What about the GI50 [35] of the same compound?
Answer: 1.69 µM (inactive)

Question: What about the GI50 [36] of the same compound?
Answer: 5.24 µM (inactive)

Question: What about the GI50 [37] of the same compound?
Answer: 1.79 µM (inactive)

Question: And the GI50 [38]?
Answer: 2.9 µM (inactive)

Question: What about the GI50 [39] of the same compound?
Answer: 1.69 µM (inactive)

Question: And the GI50 [40]?
Answer: 2.07 µM (inactive)

Question: What about the GI50 [41] of the same compound?
Answer: 1.63 µM (inactive)

Question: What about the GI50 [42] of the same compound?
Answer: 1.55 µM (inactive)

Question: What about the GI50 [43] of the same compound?
Answer: 1.97 µM (inactive)

Question: And the GI50 [44]?
Answer: 1.86 µM (inactive)

Question: And the GI50 [45]?
Answer: 2.91 µM (inactive)

Question: What about the GI50 [46] of the same compound?
Answer: 1.75 µM (inactive)

Question: And the GI50 [47]?
Answer: 1.7 µM (inactive)

Question: What about the GI50 [48] of the same compound?
Answer: 1.16 µM (inactive)

Question: And the GI50 [49]?
Answer: 1.14 µM (inactive)

Question: And the GI50 [50]?
Answer: 2.41 µM (inactive)

Question: And the GI50 [51]?
Answer: 1.8 µM (inactive)

Question: And the GI50 [52]?
Answer: 1.88 µM (inactive)

Question: And the GI50 [53]?
Answer: 2.49 µM (inactive)

Question: What about the GI50 [54] of the same compound?
Answer: 2.24 µM (inactive)

Question: And the GI50 [55]?
Answer: 4.53 µM (inactive)

Question: And the GI50 [56]?
Answer: 1.86 µM (inactive)

Question: What about the GI50 [57] of the same compound?
Answer: 1.81 µM (inactive)

Question: And the GI50 [58]?
Answer: 1.51 µM (inactive)
